Experiment in all cases: NCI tumour cell line growth inhibition, 48 h
The subject of assay [1] is HL-60.
Assay [2] relates to UACC-62.
For assay [3], the system named is Malme-3M.
In assay [4] the test system is TK-10.
Assay [5] has as its system OVCAR-4.
The test system of assay [6] is CAKI-1.
The subject of assay [7] is SNB-75.
For assay [8], the system named is CCRF-CEM.
Assay [9] concerns MCF7.
Assay [10] deals with U-251.
In assay [11] the test system is PC-3.
Assay [12] relates to SF-539.
Assay [13] relates to SF-295.
The test system of assay [14] is NCI-H23.
Assay [15] concerns LOX IMVI.
Assay [16] concerns EKVX.
The test system of assay [17] is UO-31.
Assay [18] deals with SR.
Assay [19] concerns M14.
For assay [20], the system named is HOP-92.

The structures appear in SMILES notation.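 Five compound concentrations were applied to cells in 96-well plates for 48 hours; endpoints were derived by simple linear interpolation of the resulting dose-response curve. Here, GI50 denotes the concentration required for 50% inhibition of growth.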 Calls of active or inactive are those of the source. Cut-off read from the data, not from the text of the source: active = GI50 up to about 1.1 µM and inactive = higher.

For `COC1OC(CO)C(O)C(OC(=O)c2cc(O)c(O)c(O)c2)C1OC(=O)c1cc(O)c(O)c(O)c1` (centres undefined), the GI50 was 51.9 µM (inactive) in [1]; > 10 µM (inactive) in [2]; > 100 µM (inactive) in assay [3]; > 100 µM (inactive) in assay [4]; 23.1 µM (inactive) in [5]; 48.3 µM (inactive) in assay [6]. Besides, the GI50 is > 100 µM (inactive) in assay [7]; 42.7 µM (inactive) in [8]; > 100 µM (inactive) in assay [9]; > 100 µM (inactive) in assay [10]; 95.5 µM (inactive) in assay [11]; 83.6 µM (inactive) in assay [12]. The GI50 in assay [13] was 20.2 µM (inactive); in [14], > 100 µM (inactive); in assay [15], 23.3 µM (inactive); in assay [16] it was > 100 µM (inactive); in assay [17] it was > 100 µM (inactive); in [18], 53.7 µM (inactive). Besides, in [19], the GI50 was 45.4 µM (inactive).

With `C[Si](C)(C)C1=C2C(=O)c3ccccc3C(=O)C2=C([Si](C)(C)C)[C@@H]2CCCC[C@H]12`, the GI50 in assay [1] was > 100 µM (inactive); in [2] it was > 100 µM (inactive); in assay [3], > 100 µM (inactive); in assay [4], > 100 µM (inactive); in [5], 95.3 µM (inactive); in [6], > 100 µM (inactive). Besides, the GI50 in [8], in assay [9], in assay [10], in assay [11], in assay [12] and in assay [13] was > 100 µM (inactive) throughout. The GI50 in [20], in assay [14], in [15], in [16], in assay [17] and in assay [18] was > 100 µM (inactive) each time. Also, the GI50 in assay [19] is > 100 µM (inactive).

Take `CCOP(=O)(OCC)C(c1ccc(F)cc1)N(C(=O)NC(F)(F)F)c1ccc(F)cc1` (centres undefined): the GI50 in assay [1], in [3], in assay [4], in assay [6], in assay [7] and in [8] was > 100 µM (inactive) throughout. Moreover, the GI50 in [9], in [10], in assay [11], in assay [12], in assay [13] and in assay [14] was > 100 µM (inactive) in each case. The GI50 in assay [15], in [16], in [17], in [18] and in assay [19] was > 100 µM (inactive) throughout.

Take `c1ccc(C(=NCCC2CNc3ccccc32)c2ccccc2)cc1` (centres undefined): the GI50 in assay [2], in assay [3], in [5], in assay [6], in assay [8] and in assay [9] was > 100 µM (inactive) each time. Moreover, the GI50 in assay [10], in [11], in assay [13], in assay [20], in assay [14] and in assay [16] was > 100 µM (inactive) throughout. The GI50 in assay [17], in [18] and in assay [19] was > 100 µM (inactive) throughout.

As to `COc1ccc(C2(C3c4cc(OC)c(OC)cc4CCN3C)SCCCS2)cc1O` (centres undefined), the GI50 in assay [1], in assay [2], in assay [3], in assay [4], in assay [5] and in assay [6] was > 100 µM (inactive) throughout. For the same compound, the GI50 was > 100 µM (inactive) in assay [8]; > 100 µM (inactive) in [9]; > 100 µM (inactive) in assay [10]; 47.1 µM (inactive) in assay [11]; > 100 µM (inactive) in assay [12]; 71.8 µM (inactive) in assay [13]. Moreover, the GI50 is 76.2 µM (inactive) in [20]; > 100 µM (inactive) in assay [14]; > 100 µM (inactive) in [15]; 60 µM (inactive) in assay [16]; > 100 µM (inactive) in [17]; 68.1 µM (inactive) in assay [18]. Also, the GI50 in [19] is > 100 µM (inactive).

Take `CN1CCC(CNC(=O)CCCCCCCCC(=O)NCC2(c3ccccc3)CCN(C)CC2)(c2ccccc2)CC1`: the GI50 in [1] was > 100 µM (inactive); in assay [2], > 100 µM (inactive); in assay [3], > 100 µM (inactive); in assay [4], > 100 µM (inactive); in assay [5], > 100 µM (inactive); in assay [7] it was 44.2 µM (inactive). Besides, the GI50 was 84.7 µM (inactive) in [8]; > 100 µM (inactive) in assay [9]; > 100 µM (inactive) in [10]; > 100 µM (inactive) in assay [11]; 15 µM (inactive) in assay [12]; > 100 µM (inactive) in [13]. In addition, the GI50 is > 100 µM (inactive) in assay [15]; 8.22 µM (inactive) in assay [16]; > 100 µM (inactive) in [17]; > 100 µM (inactive) in assay [18]; 57.3 µM (inactive) in [19].

For `Cn1c(=O)oc2cc(C(=S)N3CCCCC3)ccc21`, the GI50 in [1], in assay [2], in assay [3], in assay [4], in assay [6] and in assay [7] was > 100 µM (inactive) throughout. The GI50 is 61.8 µM (inactive) in assay [8]; > 100 µM (inactive) in [9]; > 100 µM (inactive) in assay [10]; > 100 µM (inactive) in [11]; > 100 µM (inactive) in assay [12]; > 100 µM (inactive) in assay [13]. In addition, the GI50 in assay [14] was > 100 µM (inactive); in assay [15], > 100 µM (inactive); in [16] it was > 100 µM (inactive); in [18], 68.4 µM (inactive); in assay [19] it was > 100 µM (inactive).

For `CN(C)CC1CCCCCCCCCC(CN(C)C)C1=O` (centres undefined), the GI50 was 15.1 µM (inactive) in assay [1]; 22 µM (inactive) in assay [2]; > 35.2 µM (inactive) in assay [3]; > 37.8 µM (inactive) in [4]; > 35.4 µM (inactive) in assay [6]; 17.1 µM (inactive) in assay [7]. In addition, the GI50 in [8] is 12 µM (inactive); in assay [9], 5.07 µM (inactive); in assay [10], > 37.5 µM (inactive); in [11] it was 4.41 µM (inactive); in [12], > 27.7 µM (inactive); in assay [13], > 42.1 µM (inactive). Also, the GI50 in assay [20] was 20.4 µM (inactive); in assay [14] it was > 27.6 µM (inactive); in [16] it was > 39.9 µM (inactive); in assay [17], > 38.7 µM (inactive); in [18], 17.6 µM (inactive); in [19], 16.9 µM (inactive).

As to `Cc1cn(C2CC(n3cc(Cn4cc(I)c(=O)[nH]c4=O)nn3)C(CO)O2)c(=O)[nH]c1=O` (centres undefined), the GI50 in assay [1] is 0.0119 µM (active); in assay [2] it was > 100 µM (inactive); in assay [4] it was > 100 µM (inactive); in [5] it was > 100 µM (inactive); in assay [6] it was > 100 µM (inactive); in [7], > 100 µM (inactive). Besides, the GI50 in [8], in [9], in assay [10], in assay [11], in assay [12] and in assay [13] was > 100 µM (inactive) throughout. Besides, the GI50 was > 100 µM (inactive) in assay [20]; > 100 µM (inactive) in assay [14]; > 10 µM (inactive) in assay [17]; < 0.01 µM (active) in assay [18]; > 100 µM (inactive) in assay [19].

Turning to `O=c1c2cn[nH]c2nc2scc(-c3ccc(Cl)cc3)n12`, the GI50 in assay [2] is > 100 µM (inactive); in assay [3] it was > 100 µM (inactive); in assay [4], > 100 µM (inactive); in assay [5] it was > 100 µM (inactive); in assay [6] it was > 100 µM (inactive); in assay [7], 16.9 µM (inactive). Besides, the GI50 in assay [8], in assay [9], in assay [10], in assay [11], in assay [12] and in assay [13] was > 100 µM (inactive) each time. Besides, the GI50 in [14], in assay [15], in assay [16], in [17], in assay [18] and in assay [19] was > 100 µM (inactive) in each case.

For `C[C@]12CC[C@H](O)CC1=CC[C@@H]1[C@@H]2CC[C@]2(C)NC(=O)/C(=C\c3ccccc3)C[C@@H]12`, the GI50 in assay [2] was 18.3 µM (inactive); in assay [3] it was 15.8 µM (inactive); in [4] it was 28.2 µM (inactive); in [5], 5.64 µM (inactive); in assay [6] it was 25.2 µM (inactive); in [7], 19.6 µM (inactive). For the same compound, the GI50 in [8] was 17 µM (inactive); in assay [9], 14.4 µM (inactive); in [10], 14.1 µM (inactive); in assay [11], 13.3 µM (inactive); in assay [12] it was 14.6 µM (inactive); in assay [13], 16.5 µM (inactive). Moreover, the GI50 in [14] was 18.2 µM (inactive); in assay [15] it was 16.8 µM (inactive); in assay [16] it was 14 µM (inactive); in assay [17], 12.9 µM (inactive); in assay [18], 28.7 µM (inactive); in assay [19], 15.8 µM (inactive).
